Test [1] deals with rabbits having received a dose of endotoxins equal to 12 EU/kg. Nature of the test: Pyrogen test in rabbits: lowering of the body temperature increase caused by intravenously injected endotoxins. Type of test: in vivo, rabbit. To be noted: xylitol 1.5 g/kg, ASPEGIC 100 mg/kg where present; for Difference compared with the positive control of contamination (%): lowering of the endotoxin-induced temperature increase versus Batch 2, endotoxins 12 EU/kg i.v., significant when greater than 5%; for Temperature increase (° C.): mean temperature difference, 3 rabbits per batch, endotoxins 12 EU/kg intravenously. An excerpt:
Specifically, the pyrogen test in rabbits is the test described in the European Pharmacopoeia for verifying, in vivo, the apyrogenicity of certain molecules intended to be administered parenterally.
Thus, the applicant company, a producer of molecules intended to be administered parenterally, therefore used this test, which it has perfected, under the conditions described in the European Pharmacopoeia, in order to determine the body temperature-lowering effects of xylitol alone, and of xylitol combined with an antipyretic.
The experiment is carried out with batches of laboratory animals, in this instance here, rabbits.
The solutions to be injected are prepared in sterile water (water for injectable preparation—AGUETTANT).
The bottles of endotoxins (control standard Entotoxin or CSE—ENDOSAFE) contain 5 ml of endotoxins at 30 EU/ml with 120 ml of water for injectable preparation.
The contamination is calculated so as to observe a pyrogenic shock in the rabbit. This contamination is produced by intravenously injecting endotoxins in a proportion of 1.2 EU/ml, i.e. 12 EU/kg.
The antipyretic agent, in this instance aspirin, is prepared extemporaneously. 6.6 ml are added to 125 ml of endotoxins so as to obtain a dose equivalent to 100 mg/kg. The aspirin chosen is injectable ASPEGIC® (DL-lysine acetyl salicylate), manufactured by Laboratoires SYNTHELABO (LE PLESSIS ROBINSON), packed in proportion of 6 bottles of 2 g of powder and 6 vials of 5 ml of water for injectable preparation, for extemporaneous dissolution.
The xylitol is a batch of apyrogenic XYLISORB® manufactured by the applicant company. Apyrogenic dextrose monohydrate (marketed under the trademark LYCADEX® PF by the applicant company) is used as a control.
The rabbits are injected with a solution of xylitol at 150 g/l with water for injectable solution contaminated or not contaminated with the endotoxins. Five experiments are carried out with 3 rabbits per batch.

The test system of test [2] is healthy rabbit. The conditions noted are these: intravenous administration; cited from earlier work.

For the compound `OC[C@@H](O)[C@H](O)[C@@H](O)CO` [Batch 4, xylitol], in test [1], the “Difference compared with the positive control of contamination (%)” value was 7.5% and the “Temperature increase (° C.)” value is 2.73 °C. Besides, in test [2], the “effect on body temperature of the laboratory animal” value is listed as “lowers the body temperature”.

Consider methylephedrine, for which the “effect on body temperature of the laboratory animal” value in test [2] is listed as “lowers the body temperature”.

Consider `CC(=O)Oc1ccccc1C(=O)O` (racemic) [Batch 3, DL-lysine acetyl salicylate], for which, in test [1], the “Difference compared with the positive control of contamination (%)” value is listed as 46% and the “Temperature increase (° C.)” value came to 1.57 °C.

The values above are taken from US20060142254A1, “Antipyretic preparation containing xylitol” (ROQUETTE FRERES, priority 2001, published 2006).
